The values below come from patent US20050153943A1, “Methods of simultaneously treating mucositis and fungal infection” (priority 2002, published 2005).

Converted amounts (≈) assume the structure as drawn. Like-named read-outs stand apart in the source and are kept apart here. Bounds are passed on as bounds.

Broadly, the IC50 is the concentration at which inhibition is half-maximal. The MIC is the smallest concentration in the dilution series that meets the test's criterion for growth inhibition.

Data set [1] concerns BALB/c 3T3 (CCL-163) cells. Put plainly: 3T3 phototoxicity assay (Neutral Red uptake, with/without UVA). The settings on record: 5 J/cm^2 UVA vs dark; for PIF 1 (photoirritancy factor, IC50(-UVA)/IC50(+UVA), earlier software): 1 = no measurable phototoxicity, >5 phototoxic potential; for MPE (mean photo effect): <0.1 nonphototoxin, 0.1 to <0.15 probable, >=0.15 clear phototoxin.

Data set [2] deals with Aspergillus fumigatus ATCC 1022. The data set can be described thus: Fungal growth on SABHI agar containing CMT (Example 38). The class given is cell-based. The settings on record: 25 μg/ml, 30° C., growth grade. Here is the method: (§1) The following fungi were inoculated onto potato dextrose agar (PDA) from stock cultures and incubated aerobically at 30° C.: Aspergillus [NT] 1022, Penicillium sp. (laboratory isolate), Candida albicans, ATCC 14053, and Rhizopus sp. […] The conidia were suspended in 0.9% saline and the turbidity was adjusted to match a 0.5 MacFarland standard (equivalent to approximately 1.5×10^8 cells). Candida albicans was suspended in saline and adjusted to 0.5 MacFarland in a similar manner. These suspensions were diluted 1:100 in sterile 0.9% saline. SABHI Agar (Difco) pH 7.0 was prepared in 100 ml amounts and sterilized at 121° C. for 15 min. […] SABHI Agar plates of each CMT and SAHBI agar without CMT using dimethylsulphoxide (DMSO) as a control were inoculated with 10 μl of conidia suspension of Aspergillus fumigatus, Penicillium sp. and Rhizopus sp. and 10 μl suspension of Candida albicans prepared as described above. The plates were then incubated aerobically for 24 hour and for 48 hours at 30° C. The results are set forth in Table 1 (24 hr. incubation) and Table 2 (48 hr. incubation). [table]

In data set [3] the test system is Candida albicans, ATCC 14053. The data set is described as above. Format: cell-based. The settings on record: 25 μg/ml, 30° C., growth grade. On the procedure: as §1
Data set [4] concerns Penicillium sp. (laboratory isolate). The data set is described as above. Format: cell-based. The settings on record: 25 μg/ml, 30° C., growth grade. Here is the method: as §1
In the next data set the test system is Rhizopus sp. Described as above. The class given is cell-based. The following applies: 25 μg/ml, 30° C., growth grade. On the procedure:
as §1

Another data set relates to Penicillium Species. Put plainly: IC50 and MIC on microplate agar gels (Example 40). Format: cell-based. The settings on record: agar gel, 0.25-4.00 μg/ml, 30° C., 24 hours, NI = no detectable inhibition. Here is the method:
(§2) Each drug was dissolved in DMSO (1.0 mg/ml) as a stock solution and stored at −20° C. Just prior to use, each stock solution was thawed and diluted in DMSO to produce 6 different 100× concentrations. Potato dextrose agar was dissolved in distilled water (39 g/L) and sterilized at […] (250° F.) for 15 min. The agar solution was mixed with each drug (in a water bath at 60° C.) to make a series of final concentrations, i.e. 0.00, 0.25, 0.50, 1.00, 2.00, 4.00 μg/ml. The mixtures were then transferred to 24-well plates (1 ml/well). After the gel had formed, the fungus in PBS (spore count=1-5×10^4/ml) was inoculated by pipetting 10 μl onto each gel. The plates were incubated at 30° C. for different times, depending on the requirement of each species, e.g. 24 hours for Penicillium, Rhizopus, Tricothecium, Ulocladium, Absidia, Aspergilus, Caindida, Cunninghamella, 3 days for Scedosporium, and 5 days for Fonsecae and Phialophora.
(§3) “*” indicates better than or similar results to Amphotericin B. “NI” indicates no detectable inhibition.

The subject of a further data set is Scedosporium Apiospermum. The data set can be described thus: IC50 and MIC on microplate agar gels (Example 40). Format: cell-based. The following applies: agar gel, 0.25-4.00 μg/ml, 30° C., 3 days, NI = no detectable inhibition. On the procedure: as §2, §3
A further data set relates to Tricothecium Species. The data set can be described thus: IC50 and MIC on microplate agar gels (Example 40). The class given is cell-based. The following applies: agar gel, 0.25-4.00 μg/ml, 30° C., 24 hours, NI = no detectable inhibition. On the procedure: as §2, §3
The subject of a further data set is Ulocladium Species. Put plainly: IC50 and MIC on microplate agar gels (Example 40). Format: cell-based. The settings on record: agar gel, 0.25-4.00 μg/ml, 30° C., 24 hours, NI = no detectable inhibition. On the procedure:
as §2, §3

In data set [5] the test system is 11 different species of fungi. The data set can be described thus: Summary of Example 40 over the whole panel. The settings on record: 11 tested fungi, up to 4.00 μg/ml. Format: cell-based. Here is the method:
as §2, §3

For data set [6], the system named is eleven different species of fungi. The following applies: cited from earlier work.
Another data set concerns Absidia Species. Put plainly: IC50 and MIC on microplate agar gels (Example 40). The class given is cell-based. The following applies: Absidia; agar gel, 0.25-4.00 μg/ml, 30° C., 24 hours; NI = no detectable inhibition; read-out: IC50. Here is the method: as §2, §3
The test system of the next data set is Aspergilus Fumigatus. The data set can be described thus: IC50 and MIC on microplate agar gels (Example 40). The settings on record: agar gel, 0.25-4.00 μg/ml, 30° C., 24 hours; NI = no detectable inhibition; read-out: IC50. Format: cell-based. On the procedure: as §2, §3
The subject of the next data set is Candida Albicans. The data set can be described thus: IC50 and MIC on microplate agar gels (Example 40). Format: cell-based. The settings on record: Candida albicans; agar gel, 0.25-4.00 μg/ml, 30° C., 24 hours; NI = no detectable inhibition; read-out: IC50. Here is the method: as §2, §3
The subject of the next data set is Cunninghamella Species. Put plainly: IC50 and MIC on microplate agar gels (Example 40). The class given is cell-based. The settings on record: Cunninghamella; agar gel, 0.25-4.00 μg/ml, 30° C., 24 hours; NI = no detectable inhibition; read-out: IC50. On the procedure:
as §2, §3

A further data set has as its system Fonsecae Species. Put plainly: IC50 and MIC on microplate agar gels (Example 40). Format: cell-based. The settings on record: 120 h; agar gel, 0.25-4.00 μg/ml, 30° C., 5 days; NI = no detectable inhibition; read-out: IC50. On the procedure:
as §2, §3

The test system of another data set is Phialophora Verrucosa. Put plainly: IC50 and MIC on microplate agar gels (Example 40). Format: cell-based. The following applies: Phialophora verrucosa, 120 h; agar gel, 0.25-4.00 μg/ml, 30° C., 5 days; NI = no detectable inhibition; read-out: IC50. Here is the method: as §2, §3
The next data set relates to Rhizopus Species. Put plainly: IC50 and MIC on microplate agar gels (Example 40). The class given is cell-based. The following applies: Rhizopus; agar gel, 0.25-4.00 μg/ml, 30° C., 24 hours; NI = no detectable inhibition; read-out: IC50. On the procedure: as §2, §3

Consider `CN(C)[C@@H]1C(O)=C(C(N)=O)C(=O)[C@@]2(O)C(O)=C3C(=O)c4c(O)cccc4[C@@](C)(O)[C@H]3C[C@@H]12` [Tetracycline, reference compound], for which, in [1], the “PIF 1 (photoirritancy factor, IC50(-UVA)/IC50(+UVA), earlier software)” value was found to be 5.38 and the “MPE (mean photo effect)” value is 0.340.

Turning to `CC1c2cccc(O)c2C(=O)C2=C(O)C3(O)C(=O)C(C(N)=O)=C(O)CC3C(O)C21` (stereo not drawn) [COL 8, 4-dedimethylaminodoxycycline], the “Growth at 25 μg/ml compared to control at 48 hours” value (in data set [2]; in data set [3]; in data set [4]; in the data set with Rhizopus sp.) was 4 (Level of growth in the absence of anti-fungal agent (control).) in each case. The “Growth at 25 μg/ml compared to control at 24 hrs incubation” value in data set [3] is reported as 4 (Level of growth in the absence of anti-fungal agent (control).); in [4], 3 (25% reduction in growth of colonies compared to control.); in the data set with Rhizopus sp., 4 (Level of growth in the absence of anti-fungal agent (control).). Also, the IC50 in the data set with Penicillium Species came to 2.0 µg/mL (≈ 4.98 µM); with Scedosporium Apiospermum it was 2.0 µg/mL (≈ 4.98 µM); in the data set on Tricothecium Species it was 0.7 µg/mL (≈ 1.74 µM); with Ulocladium Species it was 2.0 µg/mL (≈ 4.98 µM). The MIC against Penicillium Species was above 4 µg/mL; against Scedosporium Apiospermum, above 4 µg/mL; against Tricothecium Species, 2.0 µg/mL (≈ 4.98 µM); with Ulocladium Species, above 4 µg/mL. Moreover, in [5], the “Antifungal activity over the panel (summary in words)” value is “had effects on some of these fungi”. For the same compound, the “Anti-fungal activity in vitro (Lu et al.)” value in data set [6] is reported as “weak or no anti-fungal activity”.

On to “2-CONHCH2-pyrrolidin-1-yl-4-dedimthylaminodoxycycline [COL 807]”, for which, in [1], the “PIF 1 (photoirritancy factor, IC50(-UVA)/IC50(+UVA), earlier software)” value came to 40.4 and the “MPE (mean photo effect)” value is listed as 0.382.

Turning to `CN(C)CC(=O)Nc1ccc2c(c1O)C(=O)C1=C(O)C3(O)C(=O)C(C(N)=O)=C(O)CC3CC1C2` (stereo not drawn) [COL 309, 9-dimethylaminoacetamido-6-demethyl-6-deoxy-4-dedimethylaminotetracycline], the “Growth at 25 μg/ml compared to control at 48 hours” value (in data set [2]; in data set [3]; in data set [4]; in the data set on Rhizopus sp.) was 4 (Level of growth in the absence of anti-fungal agent (control).) in each case. Besides, the “Growth at 25 μg/ml compared to control at 24 hrs incubation” value in data set [3] is reported as 4 (Level of growth in the absence of anti-fungal agent (control).); in data set [4], 3 (25% reduction in growth of colonies compared to control.); in the data set on Rhizopus sp., 4 (Level of growth in the absence of anti-fungal agent (control).).

For the compound `C[C@H]1c2cccc(O)c2C(=O)C2=C(O)[C@]3(O)C(=O)C(C(N)=O)=C(O)[C@@H](N(C)C)[C@@H]3[C@@H](O)[C@@H]21` [Doxycycline, 6α-deoxy-5-hydroxytetracycline, reference compound], the IC50 in the data set on Absidia Species is above 4 µg/mL; in the data set on Aspergilus Fumigatus it was above 4 µg/mL; in the data set on Candida Albicans it was above 4 µg/mL; in the data set on Cunninghamella Species, above 4 µg/mL; in the data set with Fonsecae Species, above 4 µg/mL; in the data set on Penicillium Species (Penicillium, read-out: IC50) it was above 4 µg/mL. For the same compound, the IC50 with Phialophora Verrucosa is above 4 µg/mL; in the data set on Rhizopus Species it was above 4 µg/mL; in the data set on Scedosporium Apiospermum (Scedosporium apiospermum, 72 h, read-out: IC50), above 4 µg/mL; in the data set on Tricothecium Species (read-out: IC50) it was 4 µg/mL (≈ 9 µM); with Ulocladium Species (read-out: IC50) it was above 4 µg/mL. In the data set with Tricothecium Species (read-out: MIC), the minimum inhibitory concentration (MIC) was above 4 µg/mL.

Regarding `CC(=O)Nc1cc(N(C)C)c2c(c1O)C(=O)C1=C(O)C3(O)C(=O)C(C(N)=O)=C(O)CC3CC1C2.O=S(=O)(O)O` (stereo not drawn) [Example 3, 9-Acetamido-4-dedimethylamino-7-dimethylamino-6-demethyl-6-deoxytetracycline sulfate], the “Growth at 25 μg/ml compared to control at 24 hrs incubation” value in [2] (24 hrs) is given as 0 (complete inhibition of growth.); in data set [3], 1 (75% reduction in growth in colonies compared to control.); in [4] it was 0 (complete inhibition of growth.); with Rhizopus sp. it was 3 (25% reduction in growth of colonies compared to control.). In addition, the “Growth at 25 μg/ml compared to control at 48 hours” value is 4 (Level of growth in the absence of anti-fungal agent (control).) in data set [2], 4 (Level of growth in the absence of anti-fungal agent (control).) in data set [3], 4 (Level of growth in the absence of anti-fungal agent (control).) in data set [4] and 1 (75% reduction in growth in colonies compared to control.) with Rhizopus sp..
